Key:
[1] = type: physicochemical
Source text: To further improve the washing procedure that leads to a high carnosic acid content in the final extract and, concomitantly, a strong antioxidant activity, here we studied the effect of the addition of sodium chloride on the CA hydrosolubility.

[2] = Saturation level of urea, betaine and urea:betaine mixtures in water; type: physicochemical
Source text: The concentrations of pure urea solution in water or PBS ranged from 0.025 to 10.1 M, the latter value corresponding to the saturation level of urea. Finally, the concentrations of pure betaine in water or PBS ranged from 0.025 to 5.4 M, this latter corresponding to the saturation level of betaine. In this Example, anhydrous urea:betaine (U:B) mixtures at different molar ratios were first prepared, then solubilized in distilled water at different concentrations ranging from 1.5 g/L to the saturation level which was 607, 813, 985, 957, 795, 741, and 633 g/L for the U:B ratios 1:0, 3:1, 2:1, 1:1, 1:2, 1:3, and 0:1, respectively.

[3] = Solubilization of disperse red 13 by urea:betaine aqueous solutions (absorbance at 525 nm); type: physicochemical; settings: distilled water, room temperature
Experimental: The desired amounts of betaine and/or urea powders were dissolved in distilled water or phosphate buffer solution (PBS, 67 mM) at pH 7.0 to form a 100 mL solution.
The concentration of urea in the urea:betaine mixtures in water or PBS ranged from 0.025 to 8.3 M.
The solutions of urea and/or betaine in PBS were adjusted to provide a pH of 7.0 using concentrated HCl. The volume of added HCl was taken into account when calculating the final molar concentration of betaine and/or urea.
10 mL of the osmolyte solution was added to a vial containing 5 mg red disperse 13 in excess ([…], Sigma), then magnetically stirred (500 rpm) for 16 hours and filtrated (0.45 μm). The concentration of red disperse 13 in the filtrate is measured at 525 nm (Shimadzu UV-1800, Japan). […]
These liquid mixtures were mixed with an excess of disperse red 13 used as a hydrophobic probe to screen the solubilization properties of the solvents. It can be observed from FIG. 1 that the disperse red 13 absorbance increases exponentially 525 nm approx.) with increasing the deep eutectic concentration in water. […]

water solubility [1] | saturation level ([2]; distilled water) [g/L] | saturation level ([2]; water or PBS) [M] | hydrotropic behavior for disperse red 13 [3] | SMILES
strongly reduced | – | – | – | CC(C)c1cc2c(c(O)c1O)[C@@]1(C(=O)O)CCCC(C)(C)[C@@H]1CC2 [CA, carnosic acid]
– | 633 | 5.4 | too modestly to be qualified as such | C[N+](C)(C)CC(=O)O [betaine]
– | 607 | 10.1 | displays a hydrotropic behavior | NC(N)=O [urea, Urea]

Reference: patent US20220305401A1, “EUTECTIC EXTRACTION OF SOLIDS” (Givaudan SA, priority 2019, published 2022)
